Patent US12435074B2, “Physics-driven discovery of novel small therapeutic compounds for use as a BCL-2 inhibitor” (BAHCESEHIR UNIVERSITESI, priority 2020, dated 2025)
pIC50: −log10 of the molar value.

Tested on: HCT-116 colon cancer cell line
Assay: MTT cell proliferation assay on HCT-116 cells
Format: cell-based
Experimental: For cell culture experiments various cancer cell lines, HCT-116 colon cancer, U87-MG glial tumor, MCF7 breast cancer cell lines were used. Cells were seeded with high glucose DMEM medium (Biosera) supplemented with 10% FBS (Gibco) and 1X penicillin/streptomycin (Multicell). Twenty-four hours prior to molecule treatment, 10,000 cells were seeded into each well of 24-well cell culture plates. Molecules were used by preparing 4 mM stock solution in DMSO (Amresco). For molecule treatment, molecule stock solutions were diluted in DMEM with 10% FBS and added onto cells in each corresponding well. Final concentration of vehicle DMSO was 2% at maximum. […] We calculated the number of cells to be seeded to make sure that none of the cells reaches more than 60% confluency during the treatment period, as higher plate confluency levels would slow down cell proliferation independently from the molecule treatment.
Values of half-maximal inhibitory concentration were (IC50) determined by MTT cell proliferation assays. […] 570 nm absorbance values were recorded and IC50 values were calculated by dose response—inhibition curves and nonlinear regression analysis on GraphPad Prism 8 software. […] Following the initial incubation day, molecules were added and after incubation with MTT at 37° C. for 4 hours, formazan was solubilized with DMSO (Sigma-Aldrich, St. Louis, USA) and absorbance was measured at 570 nm. […]

Question: `CCC(C)(C)C1CCc2c(sc(NC(=O)c3cc(-c4ccc(Cl)s4)nc4ccccc34)c2C(N)=O)C1` (centres unmarked) [compound of formula I] was tested. Which “proliferation of HCT-116 cells compared to vehicle group” value (FIG. 1, versus vehicle (max 2% DMSO)) did it give?
Answer: reduced proliferation and apoptotic cell structures

Question: And the pIC50 (Homo sapiens, 72 h, single treatment, three days results, 570 nm absorbance, read-out: IC50 (half-maximal inhibitory concentration))?
Answer: 3.89
